Key:
[1] = target: T1, Casp6-K284A-LS-SS (Homo sapiens, UniProt P55212, K284A); assay: C13 dose-response and global-fit kinetics on Casp6-K284A-LS-SS; format: biochemical
T1 construct: obtained by co-expression and purification of LS and SS subunits of WT, L200A or K284A Casp6 from E. coli; His (C); made in house; host or cells: E. coli BL21(DE3)pLysS
T1 sequence (P55212 24-179 limits assumed): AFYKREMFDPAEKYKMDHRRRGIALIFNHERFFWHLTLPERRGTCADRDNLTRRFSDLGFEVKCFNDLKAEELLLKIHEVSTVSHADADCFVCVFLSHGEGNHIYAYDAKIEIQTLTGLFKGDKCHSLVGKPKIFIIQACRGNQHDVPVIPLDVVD
T1 sequence (P55212 194-293 K284A limits assumed): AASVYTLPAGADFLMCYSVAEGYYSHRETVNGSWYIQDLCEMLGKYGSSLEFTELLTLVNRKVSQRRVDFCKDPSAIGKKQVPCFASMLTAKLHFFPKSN
Source text: Figure 4 Compounds S10G and C13 inhibit Casp6 through a noncompetitive mode of inhibition. (a) Michaelis-Menten kinetic plots of Casp6 enzymatic activity in presence of 1% DMSO or increasing doses S10G (top) and C13 (bottom). Data points represent mean ± SD of three independent experiments. (b) Lineweaver-Burk plots of Casp6 inhibition with S10G (top) and C13 (bottom). Red circle indicates the point where lines converge. (c) The relationship between the slopes of lines in Lineweaver-Burk plot analyses in panel (b) and inhibitor concentration. (d) Plots of IC50 values for S10G (top) and C13 (bottom) with varying concentrations of Ac-VEID-AFC substrate. Data points represent mean ± SD from three independent experiments for each substrate concentration. (e) Binding model of C13 into CASP6 putative allosteric site, derived from molecular docking. Left: C13 (green sticks) occupies the putative allosteric site (white surface and lines; Ala-mutated residues L200 and K284 shown as purple sticks). Right: predicted interactions with Casp6 allosteric pocket residues (pink balls polar, circled blue or red for basic and acidic, respectively. Green balls = hydrophobic. Dotted-arrow: blue and green for backbone and sidechain hydrogen-bond interactions, respectively. Blue shade = solvent exposed area). Dose-response curves of C13 for Casp6-WT and Casp6-K284A (f), and copurified LS and SS of Casp6-WT-LS-SS, Casp6-L200A-LS-SS, and Casp6-K284A-LS-SS (g). Data represent mean ± SD from at least three independent experiments. (h) Global fit of kinetics data to a noncompetitive (mixed) inhibition model for Casp6-WT-LS-SS (left panel, R^2 = 0.9635), Casp6-L200A-LS-SS (middle panel, R^2 = 0.9699), and Casp6-K284A-LS-SS (right panel, R^2 = 0.9794) in the presence of 0–50 µM C13. Data points on the graph represent the mean ± SD, and calculated Ki values represent mean ± standard error (SE) from three independent experiments.
To determine the importance of C13 interactions with L200 and K284 for C13 binding in the Casp6 allosteric pocket, we have generated Casp6-L200A and Casp6-K284A mutants and investigated inhibition with C13. In contrast to Casp6-WT, purified Casp6-L200A and Casp6-K284A underwent poor self-processing when overexpressed in E. coli from a construct encoding a full-length Casp6 (Fig. S5). Casp6-L200A partially self-processed at the TETD23 site generating full-length Casp6 and Casp6 without a prodomain (ΔCasp6). Casp6-K284A underwent complete processing at the TETD23 site but, in contrast to Casp6-WT, it only partially self-cleaved at the TEVD193 site generating ΔCasp6, LS-L and SS fragments (Fig. S5). […] Fully processed forms of Casp6-WT-LS-SS, Casp6-L200A-LS-SS, and Casp6-K284A-LS-SS were obtained by co-expression and purification of LS and SS subunits of WT, L200A or K284A Casp6 from E. coli (Fig. S5). […]
Compounds, S10G (2.5 µM, 4.2 µM, 10 µM), and C13 (5 µM, 14 µM, 50 µM), were added to 20 nM active site titrated Casp6 and enzyme activity was measured with eight different Ac-VEID-AFC substrate concentrations (5.0 μM–200 μM) using fluorescence-based Casp6 activity assay as above. The apparent KM and Vmax values were determined through nonlinear regression analysis of Michaelis-Menten plots (v vs. [S]) using GraphPad Prism 5. The inhibition mode was determined from the pattern of converging Lineweaver-Burk plots (1/v vs. 1/[S])[54]. […]

[2] = test system: Casp6-K284A; assay: C13 dose-response, fluorescence-based activity assay on Casp6-K284A; format: biochemical, human
Source text: (§1) Figure 4 Compounds S10G and C13 inhibit Casp6 through a noncompetitive mode of inhibition. (a) Michaelis-Menten kinetic plots of Casp6 enzymatic activity in presence of 1% DMSO or increasing doses S10G (top) and C13 (bottom). Data points represent mean ± SD of three independent experiments. (b) Lineweaver-Burk plots of Casp6 inhibition with S10G (top) and C13 (bottom). Red circle indicates the point where lines converge. (c) The relationship between the slopes of lines in Lineweaver-Burk plot analyses in panel (b) and inhibitor concentration. (d) Plots of IC50 values for S10G (top) and C13 (bottom) with varying concentrations of Ac-VEID-AFC substrate. Data points represent mean ± SD from three independent experiments for each substrate concentration. (e) Binding model of C13 into CASP6 putative allosteric site, derived from molecular docking. Left: C13 (green sticks) occupies the putative allosteric site (white surface and lines; Ala-mutated residues L200 and K284 shown as purple sticks). […] Data points on the graph represent the mean ± SD, and calculated Ki values represent mean ± standard error (SE) from three independent experiments. […]

[3] = target: T2, Casp6-K284A (Homo sapiens, UniProt P55212, K284A); assay: as above; format: biochemical; details: Casp6-K284A; read-out: IC50 of C13 for Casp6-K284A (Fig. 4f)
T2 construct: it only partially self-cleaved at the TEVD193 site generating ΔCasp6, LS-L and SS fragments; His (C); made in house; host or cells: E. coli BL21(DE3)pLysS
T2 sequence (P55212 24-193): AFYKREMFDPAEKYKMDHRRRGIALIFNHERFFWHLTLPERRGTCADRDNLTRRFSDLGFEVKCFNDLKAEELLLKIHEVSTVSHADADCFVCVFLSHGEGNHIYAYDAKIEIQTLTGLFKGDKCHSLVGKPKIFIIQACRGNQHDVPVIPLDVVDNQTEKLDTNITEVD
T2 sequence (P55212 194-293 K284A): T1 sequence (P55212 194-293 K284A limits assumed)
Source text: as §1

For `COC(=O)c1cc(CNC(=O)C2Cc3ccccc3O2)cc(NC(=O)c2ccco2)c1` (stereo not shown) [Compound C13], the “fold higher IC50 for Casp6-K284A-LS-SS compared to Casp6-WT-LS-SS” value [1] was 1.5 fold, the “fold higher Ki for Casp6-K284A-LS-SS compared to Casp6-WT-LS-SS” value [1] was 1.6 fold and the “inhibition model (best global fit), Casp6-K284A-LS-SS” value ([1]; Ac-VEID-AFC hydrolysis, increasing substrate and C13 concentrations) was “noncompetitive (mixed) model inhibition”. For the same molecule, the IC50 ([1]; copurified LS and SS, read-out: IC50 of C13 for Casp6-K284A-LS-SS (Fig. 4g)) was 47.8 ± 6 µM, the Ki ([1]; global fit to noncompetitive (mixed) model, 0–50 µM C13, mean ± SE) was 11.8 µM and the “fold higher IC50 for Casp6-K284A than Casp6-WT” value [2] was ~ 2.7 fold. For the same molecule, the IC50 [3] was 46.7 ± 18.5 µM.

From publication PMC6445123 (Scientific Reports, 2019)
